Laboratory results taken from patent US20060194819A1, “Activation specific inhibitors of nf-kb and method of treating inflammatory processes in cardio-vascular diseases” (PROCORDE GMBH, priority 2003, published 2006).

Test system: I KappaB alpha phosphorylation
Assay: P-IkBalpha detection in Western blot of HeLa cell lysates after TNF alpha stimulation
Format: cell-based
Details: HeLa cells, 10 and 100 μM
Description: P-IkBα Detektion in Western-Blot Protocol: HeLa cells were maintained in Dulbecco's modified Eagle's medium (Invitrogen) supplemented with 10% fetal bovine serum, 2 mM L-glutamine, penicillin (50 units/ml) and streptomycin (50 μg/ml). 24 h before treatment with different compounds HeLa cells were plated at a density of 5×10^6 per well in 100-mm cell culture dishes to 90% confluences.
The cells were incubated with different drugs at the concentration indicated for 1 h, washed twice with PBS and stimulated with 20 ng/ml TNF alpha (Roche). After 7 min the cells were washed twice with ice cold PBS followed by scraping and transferring into a 1.5 ml micro centrifuge tube. After centrifugation by 2000 rpm for 2 min by 4° C. the PBS supernatant was removed and 200 μl lysis-buffer (10 mM Hepes, pH 7.9, 0.1% NP40, 10 mM, 300 mM Sucrose, 10 mM KCl, 15 mM MgCl2, 1 mM DTT, 0.5 mM PMSF and antipain, aprotinin, leupeptin each 0.75 μg/ml (Sigma) was added to the pellet. The resuspended pellet was incubated on ice for 5 min and centrifuged at 13000 g for 30 s. 30 μl of the supernatant, cytosolic extract, was diluted with Laemmli-buffer (2% SDS, 2% 2-Mercaptoethanol, 0.01% Bromophenol blue, 8% Glycerine), heated by 60° C. for 10 min and loaded to a 4-20% polyacrylamid gels (BioRad). After electrophoresis the proteins were transferred to a nitrocellulose membrane using the wet blotting technique. First the membrane was blocked with Roti-Block (Roth) and afterwards incubated with monoclonal antibodies against P-IkBalpha (Santa Cruz Biotechnology, used at 1:200 dilution). This incubation was followed by the appropriate horseradish peroxidase-conjugated secondary antibody (Dianova) at 1:10000 dilution. Antibody binding was visualized on x-ray film using the Western blot Chemiluminescent Reagent Detection Kit (Santa Cruz).

SMILES: CCOC(=O)C1=C(C)N=c2s/c(=C/c3ccc(-c4cccc(C(=O)O)c4)o3)c(=O)n2C1c1ccc(Cl)cc1 (stereo not shown) [COM 56, 2-[5-(3-Carboxyphenyl)-furan-2-ylmethylene]-5-(4-chlorophenyl)-7-methyl-3-oxo-2,3-dihydro-5H-thiazolo[3,2-a]pyrimidine-6-carboxylic acid ethyl ester]
- effect on IkappaB phosphorylation (Western blot), comparison of COM 73 and COM 54 family: concentration-dependently inhibited
